Data from ChEMBL document CHEMBL1201862, “PubChem BioAssay data set” (2004).
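Five compound concentrations were applied to cells in 96-well plates for 48 hours; endpoints were derived by simple linear interpolation of the resulting dose-response curve. GI50 = concentration required for 50% inhibition of growth.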 Active and inactive are the calls of the source. No stated cut-off is given here; in the data, active = GI50 up to about 1.1 µM and inactive = higher.

Columns and labels:
Experiment in all cases: inhibition of tumour cell growth, NCI panel, 48 h
[1] = system: A549
[2] = system: CAKI-1
[3] = system: COLO 205
[4] = system: DU-145
[5] = system: HCC 2998
[6] = system: HCT-15
[7] = system: HL-60
[8] = system: HOP-92
[9] = system: K562
[10] = system: MCF7
[11] = system: NCI-H460
[12] = system: NCI/ADR-RES
[13] = system: PC-3
[14] = system: SF-268
[15] = system: SNB-75
[16] = system: SR
[17] = system: SW-620
[18] = system: SNB-19
[19] = system: 786-0

Measured: GI50

CN(Cc1cnc2nc(N)nc(N)c2n1)c1ccc(C(=O)NC(CCC(=O)O)C(=O)O)cc1C(F)(F)F (stereo not drawn)
inactive: [8] > 100 µM | [15] > 100 µM
< 0.01 µM: [6]
active: [1] < 0.01 µM | [2] < 0.01 µM | [3] < 0.01 µM | [4] < 0.01 µM | [5] < 0.01 µM | [7] < 0.01 µM | [9] < 0.01 µM | [10] < 0.01 µM | [11] < 0.01 µM | [12] < 0.01 µM | [13] < 0.01 µM | [14] < 0.01 µM | [16] < 0.01 µM | [17] < 0.01 µM

O=C(C[C@H](NC(=O)OCc1ccccc1)C(=O)NC1Cc2ccccc2OC1=O)OCc1ccccc1 (stereo partly drawn)
inactive: [2] 70 µM | [3] > 100 µM | [4] 59.6 µM | [5] 15.9 µM | [7] > 10 µM | [8] > 100 µM | [9] 15.7 µM | [10] 19.4 µM | [11] 41.6 µM | [12] > 100 µM | [13] 21.8 µM | [18] > 100 µM | [15] > 100 µM | [16] > 100 µM
46 µM: [6]

CCOC(=O)NC(C(F)(F)F)(C(F)(F)F)P(=O)(OCC(C)C)OCC(C)C
inactive: [1] 22.3 µM | [2] 27.9 µM | [3] 10.2 µM | [4] 35 µM | [5] 34.6 µM | [7] 2.97 µM | [8] 9.38 µM | [9] 7.28 µM | [10] 4.7 µM | [11] 19.2 µM | [12] 5.05 µM | [13] 6.37 µM | [14] 11.1 µM | [18] 28.8 µM | [15] 23.6 µM | [16] 9.77 µM | [17] 3.82 µM
4.18 µM: [6]

CCOC(=O)C(C(=O)OCC)=C1NC2(c3ccccc3Nc3ccc(C)cc32)C(C(=O)OC)S1 (stereo not drawn)
inactive: [19] 22.9 µM | [1] 13.7 µM | [2] 8.69 µM | [3] 11.6 µM | [4] 50.6 µM | [5] 15.9 µM | [7] 20 µM | [8] 4.92 µM | [9] 18.4 µM | [10] 14.8 µM | [11] 12.1 µM | [12] 17.5 µM | [13] 6.85 µM | [14] 12.3 µM | [18] 55.3 µM | [15] 14.9 µM | [16] 6.34 µM | [17] 48.6 µM
18.7 µM: [6]

COC(=O)/C=C/C(=O)Nc1cc(Cl)c(Cl)cc1CC(=O)N(C)[C@H]1CCCC[C@@H]1N1CCCC1
inactive: [19] 3.83 µM | [1] 21.5 µM | [2] 5.37 µM | [3] 1.54 µM | [4] 5.02 µM | [5] 7.67 µM | [7] 2.06 µM | [8] 5.74 µM | [9] 3.72 µM | [10] 3.49 µM | [11] 17.3 µM | [12] 14.7 µM | [13] 5.05 µM | [14] 18.7 µM | [18] 18.3 µM | [15] 13.8 µM | [16] 1.95 µM | [17] 3.63 µM
11.4 µM: [6]

Cn1c(=O)cc(/N=N\c2ccc(Cl)c(Cl)c2)[nH]c1=O
inactive: [19] 17.6 µM | [1] > 100 µM | [2] 13.4 µM | [3] 22.2 µM | [4] 85.5 µM | [5] 56.8 µM | [7] 20.8 µM | [8] 30 µM | [9] 28.1 µM | [10] 26.7 µM | [11] 29.9 µM | [12] 34.2 µM | [13] 23.3 µM | [14] 20.1 µM | [18] 63.8 µM | [15] 49.2 µM | [16] 25.5 µM | [17] 24.3 µM
19.6 µM: [6]

CCOC(=O)c1csc(NC(=O)CCN2CCCC2)n1
> 100 µM: [6]
inactive: [1] > 100 µM | [2] > 100 µM | [3] > 100 µM | [4] > 100 µM | [5] > 100 µM | [7] > 100 µM | [8] > 100 µM | [9] > 100 µM | [10] > 100 µM | [11] > 100 µM | [12] > 100 µM | [13] > 100 µM | [18] > 100 µM | [15] > 100 µM | [16] 78.5 µM | [17] > 100 µM

Cc1ccc([N+](=O)[O-])cc1S(=O)(=O)Nc1ccc(C2=NOC(c3cccs3)C2)cc1 (stereo not drawn)
4.75 µM: [6]
inactive: [19] 17.5 µM | [1] 12.1 µM | [2] 18.7 µM | [3] 7.8 µM | [4] 17.6 µM | [5] 9.25 µM | [7] 3.55 µM | [8] 19.9 µM | [9] 3.58 µM | [10] 5.73 µM | [11] 9.66 µM | [12] 4.13 µM | [13] 8.93 µM | [14] 18.4 µM | [18] 13.8 µM | [15] 16.1 µM | [16] 2.05 µM | [17] 7.5 µM

COc1cc([C@@H]2c3cc(O)c(OC)cc3C=C(C(N)=O)[C@H]2C(N)=O)ccc1O
inactive: [19] > 100 µM | [1] > 100 µM | [2] > 100 µM | [3] > 100 µM | [4] > 100 µM | [5] > 100 µM | [7] > 100 µM | [8] > 100 µM | [9] > 100 µM | [10] > 100 µM | [11] > 100 µM | [12] > 100 µM | [13] > 100 µM | [14] > 100 µM | [18] > 100 µM | [15] > 100 µM | [16] > 100 µM | [17] > 100 µM
> 100 µM: [6]

c1cnc2c(c1)Nc1cnncc1S2
inactive: [19] > 100 µM | [1] > 100 µM | [2] 24.1 µM | [3] > 100 µM | [4] > 100 µM | [5] > 100 µM | [7] > 100 µM | [8] 86.3 µM | [9] > 100 µM | [10] > 100 µM | [11] > 100 µM | [12] > 100 µM | [13] > 100 µM | [14] > 100 µM | [18] > 100 µM | [15] 12.2 µM | [16] 53.3 µM | [17] > 100 µM
> 100 µM: [6]

CCCCCCCSCC(O)COC(c1ccccc1)(c1ccccc1)c1ccccc1 (stereo not drawn)
inactive: [19] 48.8 µM | [1] 26.7 µM | [2] 60.4 µM | [3] 39.8 µM | [4] > 100 µM | [5] 19.4 µM | [7] 26.9 µM | [8] 26.7 µM | [9] 54.6 µM | [10] 40.1 µM | [11] 30.1 µM | [12] 72.1 µM | [13] 29.3 µM | [14] 20.3 µM | [18] 76.6 µM | [16] 22.1 µM | [17] 78 µM
41.6 µM: [6]

CC(=O)O/C=C\OC1CCCC1
inactive: [19] > 100 µM | [1] > 100 µM | [2] > 100 µM | [3] > 100 µM | [4] > 100 µM | [5] > 100 µM | [7] > 100 µM | [8] > 100 µM | [9] > 100 µM | [10] > 100 µM | [11] > 100 µM | [12] > 100 µM | [13] > 100 µM | [14] > 100 µM | [18] > 100 µM | [15] 55 µM | [16] > 100 µM | [17] > 100 µM
> 100 µM: [6]

Cc1c(/N=N/c2ccc([N+](=O)[O-])cc2)nc2scc(-c3ccccc3)n12
31.6 µM: [6]
inactive: [19] > 100 µM | [1] > 100 µM | [2] > 73.3 µM | [3] > 100 µM | [4] > 100 µM | [5] > 100 µM | [7] 13.7 µM | [8] > 100 µM | [9] 22 µM | [10] 49.4 µM | [11] 71.9 µM | [12] 73.1 µM | [13] 68.5 µM | [14] > 82.4 µM | [18] > 100 µM | [15] 44.5 µM | [16] 19.5 µM | [17] > 80.2 µM

CCOC(=O)C1=c2[nH]c3cccc4cccc(c43)n2C(=O)CC1
inactive: [19] 34.4 µM | [1] > 100 µM | [2] > 100 µM | [3] 43.8 µM | [4] 51.6 µM | [5] 84.7 µM | [7] 17.3 µM | [8] 30.5 µM | [9] > 100 µM | [10] 36.2 µM | [11] > 100 µM | [12] > 100 µM | [13] 93.8 µM | [18] > 100 µM | [15] > 100 µM | [16] > 100 µM | [17] 29 µM
39.3 µM: [6]

C/C(=C\CNc1ncnc2c1ncn2CCC(=O)OC(C)(C)C)CO
inactive: [19] > 100 µM | [1] > 100 µM | [2] > 100 µM | [3] > 100 µM | [4] > 100 µM | [5] > 100 µM | [7] > 100 µM | [8] > 100 µM | [9] > 100 µM | [10] > 100 µM | [11] > 100 µM | [12] > 100 µM | [13] > 100 µM | [14] > 100 µM | [18] > 100 µM | [15] > 100 µM | [16] > 100 µM | [17] > 100 µM
